{"source": "ChEMBL document CHEMBL1131296", "about": "(J Med Chem, 1998)", "key": {"[1]": {"molecular_target": "T1, Alpha-1D adrenergic receptor (Homo sapiens, UniProt P25100)", "T1 sequence (P25100 whole entry)": "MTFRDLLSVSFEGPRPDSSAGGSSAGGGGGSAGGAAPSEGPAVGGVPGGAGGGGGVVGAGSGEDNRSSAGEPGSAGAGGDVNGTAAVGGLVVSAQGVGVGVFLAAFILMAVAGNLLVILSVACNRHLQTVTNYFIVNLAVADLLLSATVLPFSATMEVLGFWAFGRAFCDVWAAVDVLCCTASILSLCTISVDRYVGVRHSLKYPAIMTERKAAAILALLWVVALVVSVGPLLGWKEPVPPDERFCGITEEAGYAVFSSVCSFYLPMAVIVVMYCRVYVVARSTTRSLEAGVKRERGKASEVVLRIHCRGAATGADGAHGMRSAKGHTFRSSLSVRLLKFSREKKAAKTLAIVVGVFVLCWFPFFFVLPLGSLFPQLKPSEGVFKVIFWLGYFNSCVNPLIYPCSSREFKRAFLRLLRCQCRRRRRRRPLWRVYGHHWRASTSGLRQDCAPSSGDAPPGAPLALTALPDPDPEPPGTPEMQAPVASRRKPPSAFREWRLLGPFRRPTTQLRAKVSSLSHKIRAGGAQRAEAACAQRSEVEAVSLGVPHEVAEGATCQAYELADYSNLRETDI", "assay": "Binding affinity at human cloned Alpha-1D adrenergic receptor in chinese hamster ovary cells by [3H]prazosin displacement.", "type": "cell-based, CHO"}, "[2]": {"molecular_target": "T2, Alpha-1D adrenergic receptor (Rattus norvegicus, UniProt P23944)", "T2 sequence (P23944 whole entry)": "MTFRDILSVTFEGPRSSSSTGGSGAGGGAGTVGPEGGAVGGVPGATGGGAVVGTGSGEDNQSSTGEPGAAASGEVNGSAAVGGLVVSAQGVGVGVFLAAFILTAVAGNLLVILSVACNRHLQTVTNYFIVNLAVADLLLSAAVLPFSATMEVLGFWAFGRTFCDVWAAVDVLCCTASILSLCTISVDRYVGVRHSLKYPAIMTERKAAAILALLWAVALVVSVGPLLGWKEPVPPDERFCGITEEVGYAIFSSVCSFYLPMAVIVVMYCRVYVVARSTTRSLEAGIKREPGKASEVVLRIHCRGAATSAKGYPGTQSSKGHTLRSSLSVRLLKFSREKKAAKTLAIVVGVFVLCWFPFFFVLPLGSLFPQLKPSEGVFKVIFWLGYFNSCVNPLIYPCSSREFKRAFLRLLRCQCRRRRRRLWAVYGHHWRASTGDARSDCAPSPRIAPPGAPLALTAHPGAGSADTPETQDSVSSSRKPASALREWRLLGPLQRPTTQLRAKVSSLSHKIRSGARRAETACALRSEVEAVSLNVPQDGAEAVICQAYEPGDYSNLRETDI", "assay": "Antagonism of norepinephrine induced contraction of rat isolated thoracic aorta.", "type": "functional, tissue-based", "conditions": "read-out: pA2 (converted)"}, "[3]": {"molecular_target": "T3, Alpha-1B adrenergic receptor (Homo sapiens, UniProt P35368)", "T3 sequence (P35368 whole entry)": "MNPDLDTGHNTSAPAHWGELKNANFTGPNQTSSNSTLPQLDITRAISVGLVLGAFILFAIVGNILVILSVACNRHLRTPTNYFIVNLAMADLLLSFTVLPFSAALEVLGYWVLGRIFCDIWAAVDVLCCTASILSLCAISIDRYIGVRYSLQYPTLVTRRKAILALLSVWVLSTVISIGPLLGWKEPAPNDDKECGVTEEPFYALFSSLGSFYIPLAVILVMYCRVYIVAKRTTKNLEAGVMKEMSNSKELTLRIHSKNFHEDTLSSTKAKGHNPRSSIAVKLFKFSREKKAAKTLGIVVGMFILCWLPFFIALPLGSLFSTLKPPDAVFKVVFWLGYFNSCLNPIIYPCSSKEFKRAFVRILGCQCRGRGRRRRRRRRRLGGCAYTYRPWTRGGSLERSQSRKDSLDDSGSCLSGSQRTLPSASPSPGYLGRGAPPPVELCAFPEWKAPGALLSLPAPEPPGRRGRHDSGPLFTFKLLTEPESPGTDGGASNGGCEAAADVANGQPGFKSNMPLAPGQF", "assay": "Binding affinity at human cloned Alpha-1B adrenergic receptor in chinese hamster ovary cells by [3H]prazosin displacement.", "type": "cell-based, CHO"}}, "data": [{"smiles": "COc1cc2nc(N(C)CCCCCCN(C)C(=O)c3cccc(CN(C)C)c3)nc(N)c2cc1OC", "values": [{"measurement": "Ki", "setting": "[1]", "value": 0.245, "unit": "nM"}, {"measurement": "Kb", "setting": "[2]", "value": 5.5, "unit": "nM"}, {"measurement": "Ki", "setting": "[3]", "value": 0.166, "unit": "nM"}]}]}
